13 compounds from US20250333419A1, “BICYCLIC COMPOUNDS AS INHIBITORS OF WRN” (Incyte Corporation, priority 2023, published 2025) can be followed below.

SMILES strings stand for the structures. Where only a bound is given, the exact number is not on record here.

Experiment [1] concerns the target T1, WRN (Homo sapiens, UniProt Q14191).
T1 construct: A His-tagged construct of WRN (AA S2-S1235) was produced and used for the ATPase assay; His; made in house; host or cells: Sf9 insect cells (baculovirus)
Description: WRN ATPase activity assay (ADP-Glo). It counts as biochemical. Particulars: IC50, 1-hr pre-incubation with enzyme; geometric means of at least 2 independent replicates. The method, then: Compounds of the Examples were tested for WRN ATPase activity. WRN ATPase activity catalyzes ATP hydrolysis to produce ADP and phosphate. DNA encoding the target protein, 6×HIS-TEV-WRN-517-945, was produced, cloned and transfected as detailed in Example D. The amount of ADP produced was measured using ADP-Glo™ Kinase Assay kit from Promega Corporation in a Greiner white regular volume 384 wells assay plate (Greiner #781075). Data was normalized to a standard curve generated using various ADP concentrations and the corresponding luminescent signal intensities at each concentration. The assay conditions were optimized for enzyme concentration (WRN), substrate concentrations (ATP & dsDNA), and the linearity of the ATPase reaction, in the following assay buffer: 50 mM Tris-HCl, pH-7.5, 2 mM MgCl2, 50 mM NaCl, 1 mM EGTA, 0.01% P-20, 0.05% BSA, and 2 mM DTT prepared with nuclease free water.
A serial dilution (1:3 scheme) of the compounds were prepared in neat DMSO, with 100 nL of the compounds dispensed in the 384 wells assay plate. An 1-hr pre-incubation of the compounds with enzyme was included. A His-tagged construct of WRN (AA S2-S1235) was produced and used for the ATPase assay. Maximum inhibition control wells were set up with the addition of only assay buffer, and no inhibition control wells were set up with neat DMSO without test compounds. The reaction was initiated by addition of 5 μL substrate mix (200 μM ultrapure ATP, and 50 nM dsDNA prepared in assay buffer) and incubated at 25° C. for 35 min. A forked dsDNA oligomer substrate was prepared by annealing equal amounts of oligo GPat-1 ([BHQ2][…]) and oligo GPat-2 ([…][TAM]) and was used as dsDNA substrate for WRN ATPase assay. A typical ATPase reaction consists of 25 nM forked dsDNA, 100 μM ATP, and 1 nM WRN prepared in assay buffer. The WRN ATPase reaction was stopped by the addition of 5 μL of ADP-Glo Reagent from ADP-Glo™ Kinase Assay kit and incubated for 40 min to deplete the unreacted ATP. Afterwards, 5 μL of Kinase Detection Reagent from the ADP-Glo™ Kinase Assay kit was added and incubated for 1 hr for the development of luminescence signal.
Luminesce signals were measured on BMG PHERAstar FSX using luminescence protocol. Data analysis was carried out using Genedata software following % of control normalization. Fitting parameters include dose response IC50, Hill slope (n), maximum inhibition (S∞), and minimum inhibition (S0). The reported IC50 values for compounds in this invention are the geometric means of at least 2 independent replicates.

The target in experiment [2] is T1, WRN. As to the kind of experiment: WRN Helicase activity assay (fluorescence DNA unwinding). Particulars: IC50, 1-hr pre-incubation with enzyme; geometric means of at least 2 independent replicates. The class given is biochemical. The method, then: Compounds of the examples were tested for WRN helicase activity. DNA encoding the target protein, 6×HIS-TEV-WRN-517-945, was produced, cloned and transfected as detailed in Example D. To determine the inhibitory properties of the compounds, a 384 wells plate-based Helicase assay was set up to measure the extent of DNA unwinding (Helicase) activity of WRN. The WRN Helicase assay was designed to measure increase in fluorescence signal using a fluorescence based, donor-quencher paired forked dsDNA oligomer substrate (custom synthesis from Sigma-Aldrich) prepared by annealing equal amounts of oligo GPat-1 ([BHQ2][…]) and oligo GPat-2 ([…][TAM]). Continuous measurement of fluorescent signal was used to optimize the buffer conditions, concentration of enzyme (WRN), concentration of substrates (ATP & dsDNA), and the linearity of the Helicase reaction. All solutions were prepared in the following assay buffer: 50 mM Tris-HCl, pH-7.5, 2 mM MgCl2, 50 mM NaCl, 1 mM EGTA, 0.01% P-20, 0.05% BSA, and 2 mM DTT prepared with nuclease free water.
A serial dilution (1:3 scheme) of the compounds was prepared in neat DMSO and 100 nL of the compounds was dispensed in the Greiner black low volume (Greiner #784076) 384 wells assay plate. An 1-hr pre-incubation of the compounds with enzyme was included. A His-tagged construct of WRN (AA S2-S1235) was produced and used for the ATPase assay. Maximum inhibition control wells were set up with the addition of only assay buffer, and no inhibition control wells were set up with neat DMSO without test compounds. The reaction was initiated by addition of 5 μL substrate mix (200 μM ultrapure ATP, and 50 nM dsDNA prepared in assay buffer) and incubated at 25° C. for 35 min. A typical Helicase reaction consists of 25 nM forked dsDNA, 100 μM ATP, and 1 nM WRN prepared in assay buffer. The WRN Helicase reaction was quenched by the addition of 5 μL ‘STOP’ solution containing 100 mM EDTA (final EDTA concentration 33.33 mM) prepared in assay buffer. The plates were read on BMG PHERAstar FSX using 540/590 module to measure an increase of fluorescence. Data analysis was carried out using the Genedata software following % of control normalization. Fitting parameters include dose response IC50, Hill slope (n), maximum inhibition (S∞), and minimum inhibition (S0). The reported IC50 values for compounds in this invention are the geometric means of at least 2 independent replicates.

T1 sequence (Q14191 2-1235): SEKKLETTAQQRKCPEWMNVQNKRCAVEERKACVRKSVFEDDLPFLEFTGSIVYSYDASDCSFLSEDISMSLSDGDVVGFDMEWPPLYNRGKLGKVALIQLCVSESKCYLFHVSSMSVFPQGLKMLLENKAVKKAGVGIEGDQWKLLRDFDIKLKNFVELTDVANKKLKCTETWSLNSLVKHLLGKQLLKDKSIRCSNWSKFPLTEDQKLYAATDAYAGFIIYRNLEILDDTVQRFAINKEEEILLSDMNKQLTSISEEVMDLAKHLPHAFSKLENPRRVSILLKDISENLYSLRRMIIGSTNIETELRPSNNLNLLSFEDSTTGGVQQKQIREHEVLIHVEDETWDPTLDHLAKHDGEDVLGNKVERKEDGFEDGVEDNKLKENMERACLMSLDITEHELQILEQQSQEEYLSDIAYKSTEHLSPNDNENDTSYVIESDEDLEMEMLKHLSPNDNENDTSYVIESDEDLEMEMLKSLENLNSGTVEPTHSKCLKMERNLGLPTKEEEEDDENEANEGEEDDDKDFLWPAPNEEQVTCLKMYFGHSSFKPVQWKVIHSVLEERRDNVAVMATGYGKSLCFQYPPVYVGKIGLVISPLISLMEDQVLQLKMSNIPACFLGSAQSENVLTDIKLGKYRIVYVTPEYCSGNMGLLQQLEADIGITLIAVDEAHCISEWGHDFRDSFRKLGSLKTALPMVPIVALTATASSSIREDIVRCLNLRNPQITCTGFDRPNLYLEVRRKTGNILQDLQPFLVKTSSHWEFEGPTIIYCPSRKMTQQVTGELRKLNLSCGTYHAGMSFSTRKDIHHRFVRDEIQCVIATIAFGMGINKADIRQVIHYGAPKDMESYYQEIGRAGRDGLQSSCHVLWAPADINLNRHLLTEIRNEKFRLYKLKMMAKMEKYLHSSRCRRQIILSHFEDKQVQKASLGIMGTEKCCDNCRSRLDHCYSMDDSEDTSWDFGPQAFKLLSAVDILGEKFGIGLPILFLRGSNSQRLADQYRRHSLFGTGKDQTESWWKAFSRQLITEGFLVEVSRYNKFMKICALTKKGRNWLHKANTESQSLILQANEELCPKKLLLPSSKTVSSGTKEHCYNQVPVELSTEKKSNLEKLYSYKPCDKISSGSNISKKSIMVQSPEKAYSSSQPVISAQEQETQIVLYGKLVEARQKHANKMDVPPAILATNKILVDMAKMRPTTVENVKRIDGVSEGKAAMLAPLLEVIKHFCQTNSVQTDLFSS

On to `CCc1c(-c2ccccc2NC(=O)/C(C#N)=C\C(C)C)c(=O)n2nc(C3=CCOCC3)nc2n1CC(=O)Nc1ccc(C(F)(F)F)cc1` (single isomer, unassigned) [Example 4, (Z)-2-Cyano-N-(2-(2-(3,6-dihydro-2H-pyran-4-yl)-5-ethyl-7-oxo-4-(2-oxo-2-((4-(trifluoromethyl)phenyl)amino)ethyl)-4,7-dihydro-[1,2,4]triazolo[1,5-a]pyrimidin-6-yl)phenyl)-4-methylpent-2-enamide], for which the half-maximal inhibitory concentration (IC50) on WRN [1] and on WRN [2] was 500 to 1000 nM each time.

Take `CCc1c(-c2ccccc2NC(=O)/C(C#N)=C/C(C)C)c(=O)n2nc(C3=CCOCC3)nc2n1CC(=O)Nc1ccc(C(F)(F)F)cc1` (single isomer, unassigned) [Example 5, (E)-2-Cyano-N-(2-(2-(3,6-dihydro-2H-pyran-4-yl)-5-ethyl-7-oxo-4-(2-oxo-2-((4-(trifluoromethyl)phenyl)amino)ethyl)-4,7-dihydro-[1,2,4]triazolo[1,5-a]pyrimidin-6-yl)phenyl)-4-methylpent-2-enamide]: the IC50 against WRN [1] and at WRN [2] was less than 100 nM throughout.

Regarding `C=CS(=O)(=O)Nc1ccccc1-c1c(CC)n(CC(=O)Nc2ccc(C(F)(F)F)cc2)c2nc(C3=CCOCC3)nn2c1=O` [Example 2, 2-(2-(3,6-Dihydro-2H-pyran-4-yl)-5-ethyl-7-oxo-6-(2-(vinylsulfonamido)phenyl)-[1,2,4]triazolo[1,5-a]pyrimidin-4(7H)-yl)-N-(4-(trifluoromethyl)phenyl)acetamide], the IC50 on WRN [1] and against WRN [2] was less than 100 nM each time.

Consider `CCOC(=O)/C=C/C(=O)Nc1ccccc1-c1c(CC)n(CC(=O)Nc2ccc(C(F)(F)F)cc2)c2nc(C3=CCOCC3)nn2c1=O` [Example 3, Ethyl (E)-4-((2-(2-(3,6-dihydro-2H-pyran-4-yl)-5-ethyl-7-oxo-4-(2-oxo-2-((4-(trifluoromethyl)phenyl)amino)ethyl)-4,7-dihydro-[1,2,4]triazolo[1,5-a]pyrimidin-6-yl)phenyl)amino)-4-oxobut-2-enoate], for which the results for the half-inhibitory concentration (IC50) on WRN [1] and against WRN [2] were 500 to 1000 nM and 1000 to 2000 nM, respectively.

`C=CC(=O)N(C)c1ccccc1-c1c(CC)n(CC(=O)Nc2ccc(C(F)(F)F)cc2)c2nc(C3=CCOCC3)nn2c1=O` [Example 6, N-(2-(2-(3,6-Dihydro-2H-pyran-4-yl)-5-ethyl-7-oxo-4-(2-oxo-2-((4-(trifluoromethyl)phenyl)amino)ethyl)-4,7-dihydro-[1,2,4]triazolo[1,5-a]pyrimidin-6-yl)phenyl)-N-methylacrylamide]: the IC50 at WRN [1] was less than 100 nM; at WRN [2], 100 to 500 nM.

With `C=CC(=O)Nc1c(C)cccc1-c1c(CC)n(CC(=O)Nc2ccc(C(F)(F)F)cc2)c2nc(C3=CCOCC3)nn2c1=O` [Example 7, N-(2-(2-(3,6-Dihydro-2H-pyran-4-yl)-5-ethyl-7-oxo-4-(2-oxo-2-((4-(trifluoromethyl)phenyl)amino)ethyl)-4,7-dihydro-[1,2,4]triazolo[1,5-a]pyrimidin-6-yl)-6-methylphenyl)acryl amide], the half-maximal inhibitory concentration (IC50) was in the range of 100 to 500 nM against WRN [1] and 500 to 1000 nM at WRN [2].

On to `C=CC(=O)Nc1cc(C)ccc1-c1c(CC)n(CC(=O)Nc2ccc(C(F)(F)F)cc2)c2nc(C3=CCOCC3)nn2c1=O` [Example 8, N-(2-(2-(3,6-Dihydro-2H-pyran-4-yl)-5-ethyl-7-oxo-4-(2-oxo-2-((4-(trifluoromethyl)phenyl)amino)ethyl)-4,7-dihydro-[1,2,4]triazolo[1,5-a]pyrimidin-6-yl)-5-methylphenyl)acryl amide], for which the IC50 at WRN [1] and against WRN [2] was less than 100 nM each time.

For the compound `C=CC(=O)Nc1ccc(C)cc1-c1c(CC)n(CC(=O)Nc2ccc(C(F)(F)F)cc2)c2nc(C3=CCOCC3)nn2c1=O` [Example 9, N-(2-(2-(3,6-Dihydro-2H-pyran-4-yl)-5-ethyl-7-oxo-4-(2-oxo-2-((4-(trifluoromethyl)phenyl)amino)ethyl)-4,7-dihydro-[1,2,4]triazolo[1,5-a]pyrimidin-6-yl)-4-methylphenyl)acryl amide], the concentration for half-maximal inhibition (IC50) against WRN [1] and against WRN [2] was 500 to 1000 nM each time.

Consider `C=CC(=O)Nc1cc(Cl)ccc1-c1c(CC)n(CC(=O)Nc2ccc(C(F)(F)F)cc2)c2nc(C3=CCOCC3)nn2c1=O` [Example 10, N-(5-Chloro-2-(2-(3,6-dihydro-2H-pyran-4-yl)-5-ethyl-7-oxo-4-(2-oxo-2-((4-(trifluoromethyl)phenyl)amino)ethyl)-4,7-dihydro-[1,2,4]triazolo[1,5-a]pyrimidin-6-yl)phenyl)acrylamide], for which the concentration for half-maximal inhibition (IC50) against WRN [1] and on WRN [2] was less than 100 nM each time.

Consider `C=CC(=O)Nc1ccc(Cl)cc1-c1c(CC)n(CC(=O)Nc2ccc(C(F)(F)F)cc2)c2nc(C3=CCOCC3)nn2c1=O` [Example 11, N-(4-Chloro-2-(2-(3,6-dihydro-2H-pyran-4-yl)-5-ethyl-7-oxo-4-(2-oxo-2-((4-(trifluoromethyl)phenyl)amino)ethyl)-4,7-dihydro-[1,2,4]triazolo[1,5-a]pyrimidin-6-yl)phenyl)acrylamide], for which the 50% inhibitory concentration (IC50) against WRN [1] and against WRN [2] was 500 to 1000 nM in each case.

Turning to `C=CC(=O)Nc1cc(C(F)(F)F)ccc1-c1c(CC)n(CC(=O)Nc2ccc(C(F)(F)F)cc2)c2nc(C3=CCOCC3)nn2c1=O` [Example 12, N-(2-(2-(3,6-Dihydro-2H-pyran-4-yl)-5-ethyl-7-oxo-4-(2-oxo-2-((4-(trifluoromethyl)phenyl)amino)ethyl)-4,7-dihydro-[1,2,4]triazolo[1,5-a]pyrimidin-6-yl)-5-(trifluoromethyl)phenyl)acrylamide], the IC50 at WRN [1] and against WRN [2] was less than 100 nM each time.

`C=CC(=O)Nc1cc(F)ccc1-c1c(CC)n(CC(=O)Nc2ccc(C(F)(F)F)cc2)c2nc(C3=CCOCC3)nn2c1=O` [Example 13, N-(2-(2-(3,6-Dihydro-2H-pyran-4-yl)-5-ethyl-7-oxo-4-(2-oxo-2-((4-(trifluoromethyl)phenyl)amino)ethyl)-4,7-dihydro-[1,2,4]triazolo[1,5-a]pyrimidin-6-yl)-5-fluorophenyl)acryl amide]: the half-inhibitory concentration (IC50) at WRN [1] and against WRN [2] was less than 100 nM in each case.

Consider `C=CC(=O)N1CCCC=C1c1c(CC)n(CC(=O)Nc2ccc(C(F)(F)F)cc2)c2nc(C3=CCOCC3)nn2c1=O` [Example 14, 2-(6-(1-Acryloyl-1,4,5,6-tetrahydropyridin-2-yl)-2-(3,6-dihydro-2H-pyran-4-yl)-5-ethyl-7-oxo-[1,2,4]triazolo[1,5-a]pyrimidin-4(7H)-yl)-N-(4-(trifluoromethyl)phenyl)acetamide], for which the 50% inhibitory concentration (IC50) on WRN [1] and at WRN [2] was less than 100 nM throughout.

By IC50 is commonly meant the concentration that inhibits the measured activity by half. A lower IC50 goes with inhibition by little substance.
